# Measured values taken from patent US6759385B1, “Methods to treat undesirable immune responses” (Regents of the University of Minnesota, priority 1997, dated 2004).
# “Also recorded” adds a separate entry of the source.
# How the values were obtained:
# [1] = system: anti-FVIII CD4+ cells; test: CD4+ epitope repertoire to FVIII in hemophilia A mice; type: cell-based, mouse; conditions: mice immunized s.c. with FVIII in Freund adjuvant
# From the text: CD4^+ epitope repertoire to FVIII in hemophilia A mice. Mice were immunized with 1 microgram of purified recombinant human FVIII emulsified in Freund adjuvant, and injected subcutaneously three times. The first injection utilized complete Freund adjuvant. This procedure, as opposed to i.v. injections of soluble FVIII, was selected to ensure a strong immunization to FVIII and to reveal the broadest epitope repertoire recognized by anti-FVIII CD4^+ cells.
# FIG. 48 summarizes the results obtained regarding the anti-FVIII CD4^+ repertoire in the mice thus immunized. The individual peptides are indicated with codes that include two numbers, corresponding to the position of the first and last peptide residue on the sequence of the FVIII precursor. The responses to the individual peptides are organized in panels corresponding to the different domains, as indicated.
# [2] = system: mice with EMG weakness; test: Verification of myasthenic weakness with cholinesterase inhibitor in TAChR-immunized mice; type: in vivo, mouse; conditions: i.p.
# Experimental: To verify the myasthenic nature of the weakness observed, mice with significant weakness were injected i.p. with the cholinesterase inhibitor edrophonium chloride (Reversol, Organon Inc., West Orange, N.J.). […] The test was performed blindly, i.e., without knowledge of the treatment that the mouse had received.
# Evaluation of Clinical Symptoms of EMG. The symptoms of EMG were quantified using a forced exercise by the inverted hang technique, sensitized by a minute amount of pancuronium bromide (0.03 mg/kg intraperitoneum), given just before the test (Karachunski et al., 1995). The mice hang from a grid, and the time it took for the mouse to release its hold and fall three times is measured (“holding time”). […] This test is parametric, and gives a quantitative assessment of the severity of the mouse weakness. […]
# Evaluation of the symptoms of EMG The EMG symptoms were quantified using a forced exercise test sensitized by i.p. injection of a minute amount of pancuronium bromide (0.03 mg/kg) just before the test (Karachunski et al., 1995). The mouse hangs from a grid suspended above a soft padding, and the time it takes the mouse to fall three times (‘holding time’) was measured. The test is parametric, and gives a quantitative assessment of the mouse weakness. […]
# [3] = system: SCID mice engrafted with BL; test: Verification of myasthenic weakness with cholinesterase inhibitor in SCID mice engrafted with BL from MG patients; type: in vivo, mouse
# Experimental: Assay of myasthenic symptoms. The myasthenic symptoms were quantified using a forced exercise test sensitized by administration of a minute amount of pancuronium bromide (0.03 mg/kg intraperitoneum) just before the test. The small amount of pancuronium inactivates a fraction of the mouse muscle AChR. […] The mice hang from a grid suspended above a soft padding, and the time it took the mouse to fall three times (“holding time”) was measured. The test is parametric and gives a quantitative assessment of the mouse weakness. The mice were tested without knowledge of the type of cells engrafted.
# The myasthenic nature of the weakness was verified by injecting intraperitoneum edrophonium chloride (Reversol; Organon Inc., West Orange, N.J.). […] The concentrations of human IgG and IgM in the mouse sera was measured by ELISA. Microtiter plates (Nunc, Roskilde, Denmark) were coated with goat anti-human IgG or IgM Ab (pierce, Rockford, Ill.) in 20 mM sodium carbonate buffer, pH 9.5 (coating buffer), and blocked any uncoated sites with 3% bovine serum albumin (BSA) in coating buffer. Mouse sera diluted serially in PBS was added, and incubated at 4° C. overnight. After four washings with PBS containing 1% Triton X-100, peroxidase conjugated anti-human IgG and IgM Ab (Sigma, St. Louis, Mo.) was added. […] The optical density of the plates was read at 490 nm in an ELISA reader. […]
# [4] = system: CD8+ depleted spleen cells; test: Lymphocyte proliferation assay, CD8+ depleted spleen cells of IL-4 KO mice; type: cell-based, mouse; conditions: for recognition of individual peptide by cells from sham-treated mice: IL-4 KO mice immunized with TAChR, 10 μg/ml peptide
# Experimental: Lymphocyte Proliferation Assay. Two weeks after the last immunization, spleen cells (Bellone et al., 1991) were obtained from three identically treated IL-4 KO mice. The cells were pooled and depleted them in CD8^+ cells using paramagnetic beads and rat anti-mouse CD8^+ antibody (Pharmingen, San Diego, Calif.). The cells were suspended in RPMI-1640 (Gibco, Grand Island, N.Y.) supplemented with 10% heat inactivated fetal calf serum (Gibco), 50 μM 2-mercaptoethanol, 1 mM L-glutamine, 10 mM Hepes, 1 mM sodium pyruvate, 100 U/ml penicillin and 100 μg/ml streptomycin (×10^6 cells/ml). The cells were seeded in triplicate in 96 flat-bottom well plates (200 μl/well). One of the following antigens or stimulants was added: 10 μg/ml phytohemoagglutinine (PHA) (Sigma); 10 μg/ml TAChR; the pools of overlapping peptides spanning the α, β, γ, or δ subunit sequences (5 μg/ml) of each peptide); and 10 μg/ml of the individual a subunit peptides. Controls were triplicate wells cultivated without any antigen, or with or a 20-residue control peptide synthesized by the same method, unrelated to the TAChR sequence (10 μg). After four days the cells were labeled for 16 hours with ^3H-thymidine (1 μCi per well, specific activity 6.7 Ci/mmol, Dupont, Boston, Mass.), and harvested (Titertek, Skatron, Sterling, Va.). The ^3H-thymidine incorporation was measured by liquid scintillation.
# [5] = system: EMG; conditions: s.c. or i.p. 300 μg in IFA, 7 days before or 7-18 days after first TAChR immunization; cited from earlier work
# [6] = system: anti-TAChR and anti-peptide IgG subclasses; test: ELISA of anti-TAChR and anti-peptide IgG subclasses (Example III); type: in vivo, mouse; conditions: IL-4 KO mice, nasal α epitope pool
# Experimental: Assay of Anti-TAChR and Anti-peptide IgG Subclasses. The relative concentration of IgG subclasses of anti-TAChR and anti-peptide antibodies in the sera of peptide- and sham-treated mice was measured by ELISA after immunization with TAChR. Pooled sera from three-four mice that had received identical treatments was used. The sera used in this assay was obtained at the end of the observation period (10 weeks after beginning of the anti-TAChR immunization).
# Ninety-six well plates (Nunc, Karstrup, Denmark) were washed extensively and incubated as follows: 4 hours with a 10 μg/ml solution of TAChR or of individual peptides Tα150-169, Tα181-200 and Tα360-378 in 0.1 M Na phosphate buffer, pH 9.5 (two wells for each antigen), 1 hr with PBS plus 3% bovine serum albumin (BSA), 2 hours with mouse serum (serial dilutions from 1:100 to 1:40,000 in PBS plus 3% BSA), 1 hr with a dilution 1:1000 in PBS plus 3% BSA of goat antibody specific for the total IgG, or IgGl, or IgG2a, or IgG2b or IgG3 (Mouse Monoclonal Isotyping Kit, Sigma, St. Louis, Mo.), and 30 minutes with a 1:3000 dilution of peroxidase-conjugate rabbit anti-goat IgG (Sigma) in PBS plus 3% BSA. The plates were washed, and developed them for 20-60 minutes with ABTS peroxidase substrate system (Kirkegaard & Perry Laboratories Inc., Gaithersburg, Md.). […] The OD was read at 405 nanometers. […]
# [7] = system: spleen CD4+ T-cells; test: Lymphocyte proliferation assay, spleen CD4+ T-cells (Example IV); type: cell-based, mouse; conditions: TAChR-immunized B6 mice, 5 or 10 μg/ml
# Experimental: Lymphocyte proliferation assay. Five to seven days after the last TAChR immunization, CD4^+ T-cells (Bellone et al., 1991a) were purified from the pooled spleens of three to four mice that had received identical treatments. Irradiated (3000 rad) spleen cells from non-immunized mice were diluted as needed in RPMI-1640 (Gibco, Grand Island, N.Y.) supplemented with 10% heat inactivated fetal calf serum (Gibco), 50 μM 2-mercapto-ethanol, 1 mM L-glutamine, 10 mM HEPES, 1 mM sodium pyruvate, 100 U/ml penicillin and 100 μg/ml streptomycin (culture medium) and used as APC. The spleen CD4^+ T-cells (1×10^6/ml in culture medium, 100×1/well) were seeded in triplicate in 96 flat-bottom well plates containing 100×1 of 5×10^6/ml APC. One of the following Ag was added: 10 μg/ml PHA (Sigma); 5 or 10 μg/ml TAChR; 5 or 10 μg/ml of the individual epitope peptides. The concentrations of TAChR and epitope peptides are in the saturating range of the dose dependence curve (Bellone et al., 1991a), and yielded consistent results. Controls were triplicate wells containing CD4^+ cells and APC without any Ag, or with the control peptide (10 μg/ml). After 4 days the cells were labeled for 16 hours with ^3H-thymidine (1 μCi per well, specific activity 6.7 Ci/mmol, Dupont, Boston, Mass.) and harvested (Titertek, Skatron, Sterling, Va.). The ^3H-thymidine incorporation was measured by liquid scintillation, and represented the results as stimulation indexes (S.I.: the ratio between the cpm obtained in the presence of a given stimulus, and the average cpm obtained for non-stimulated control cultures).
compound,measurement,setting,value
"1-20: synthetic peptide, residues 1-20 of the FVIII precursor (MQIELSTCFFLCLLRFCFSA; UniProt P00451 1-20, looked up, fragment)",recognition of individual FVIII peptides by CD4+ cells,[1],recognized especially strongly
"1671-1690: synthetic peptide, residues 1671-1690 of the FVIII precursor (RTTLQSDQEEIDYDDTISVE; UniProt P00451 1671-1690, looked up, fragment)",recognition of individual FVIII peptides by CD4+ cells,[1],recognized especially strongly
"CC[N+](C)(C)c1cccc(O)c1 [Reversol, edrophonium chloride]",effect on strength of mice with weakness,[2],immediately improved the strength; also recorded: immediately increased the strength
same,effect on muscle strength of mice with normal holding time,[3]; SCID mice,did not increase the muscle strength
same,effect on strength of affected mice,"[3]; intraperitoneum, SCID mice engrafted with BL from MG patients",immediately improved the strength; also recorded: improvement of the muscle strength
"peptide Tα146-162: overlapping synthetic TAChR α subunit peptide that overlaps Tα150-169 (LGIWTYDGTKVSISPES; UniProt P02710 170-186, looked up, fragment)",recognition of individual peptide by cells from peptide-treated mice,[4]; IL-4 KO mice,strongly
same,recognition of individual peptide by cells from sham-treated mice,[4],recognized strongly
same,effect on EMG,[5],prevented EMG
"peptide Tα360-378: synthetic peptide corresponding to residues 360-378 of the TAChR α subunit (VIFQTPLIKNPDVKSAIEG; UniProt P02710 384-402, looked up, fragment)",anti-peptide IgG2a,[6],moderate synthesis of IgG2a
same,recognition of individual peptide by cells from sham-treated mice,[4],recognized strongly
same,response of CD4+ cells from sham-tolerized mice to the peptide,[7],three of the five
